Values of other authors in patent publication US20210292807A1, “METHOD FOR TESTING ANTIMICROBIAL SUSCEPTIBILITY” (priority 2017, published 2021).
Read-outs that look alike come from different tables or passages of the source.

System: Klebsiella isolates
Conditions: cited from earlier work

## C[C@@H](O)[C@H]1C(=O)N2C(C(=O)O)=C(S[C@@H]3CN[C@H](C(=O)N(C)C)C3)[C@H](C)[C@H]12 [meropenem]
48 Klebsiella isolates
  MIC, high-level resistance end of the collection's susceptibility phenotypes: > 256 mg/L
  MIC, highly-susceptible end of the collection's susceptibility phenotypes: < 1.006 mg/L
Isolate 194, Sweden, VIM
  Referring Lab's MIC: ≥32 mg/L
Isolate 374, Sweden, VIM
  Referring Lab's MIC: >32 mg/L
Isolate 3354, Australia
  Referring Lab's MIC: ≤≤0.25 mg/L
Isolate 10924, Sweden, KPC
  Referring Lab's MIC: 4 mg/L
Isolate 18397, Australia
  Referring Lab's MIC: ≤≤0.25 mg/L
Isolate 43288, Australia
  Referring Lab's MIC: ≤≤0.25 mg/L
Isolate 43292, Australia
  Referring Lab's MIC: ≤≤0.25 mg/L
Isolate 43358, Australia
  Referring Lab's MIC: ≤≤0.25 mg/L
Isolate 43854, Australia
  Referring Lab's MIC: ≤≤0.25 mg/L
Isolate 44271, Australia
  Referring Lab's MIC: ≤≤0.25 mg/L
Isolate 51575, Sweden, ESBL
  Referring Lab's MIC: 0.064 mg/L
Isolate 70708, Sweden, KPC
  Referring Lab's MIC: 16 mg/L
Isolate 71076, Sweden, KPC
  Referring Lab's MIC: ≥32 mg/L
Isolate 200822, Sweden, KPC
  Referring Lab's MIC: 8 mg/L
Isolate 270902, England
  Referring Lab's MIC: 0.125 mg/L
Isolate 500638, Sweden, pAmpC
  Referring Lab's MIC: ≤0.25 mg/L
Isolate 515870, Sweden, ESBL
  Referring Lab's MIC: 0.125 mg/L
Isolate 2440606, England
  Referring Lab's MIC: ≤0.06 mg/L
Isolate 2880622, England
  Referring Lab's MIC: ≤0.06 mg/L
Isolate 2880654, England, KPC
  Referring Lab's MIC: 4 mg/L
Isolate 2890369, England
  Referring Lab's MIC: 1 mg/L
Isolate 2980639, England
  Referring Lab's MIC: 1 mg/L
Isolate 3000770, England, NDM-1
  Referring Lab's MIC: >32 mg/L
Isolate 3040820, England, pAmpC
  Referring Lab's MIC: ≤0.06 mg/L
Isolate 3080800, England, KPC
  Referring Lab's MIC: >32 mg/L
Isolate ATCC 700603, USA
  Referring Lab's MIC: ≤≤0.25 mg/L
Isolate ATCC BAA 1705, USA, KPC
  Referring Lab's MIC: 8 mg/L
Isolate ATCC BAA 1706, USA
  Referring Lab's MIC: ≤≤0.25 mg/L
Isolate K1, Australia, OXA-181
  Referring Lab's MIC: 64 mg/L
Isolate K2, Australia, OXA-181
  Referring Lab's MIC: 64 mg/L
Isolate K8, Australia, NDM-1
  Referring Lab's MIC: >256 mg/L
Isolate K14, Australia, KPC
  Referring Lab's MIC: 256 mg/L
Isolate K16, Australia, IMP - 4
  Referring Lab's MIC: 2 mg/L
Isolate K23, Australia, IMP - 4
  Referring Lab's MIC: 0.5 mg/L
Isolate KS1, Sri Lanka, OXA-181
  Referring Lab's MIC: 1 mg/L
Isolate KS2, Sri Lanka, OXA-181
  Referring Lab's MIC: ≥32 mg/L
Isolate KS17, Sri Lanka, OXA-181
  Referring Lab's MIC: ≥32 mg/L
Isolate KS23, Sri Lanka, OXA-181
  Referring Lab's MIC: ≥32 mg/L
Isolate N17, Sweden, NDM-1
  Referring Lab's MIC: ≥32 mg/L
